According to PMC11180795 (Frontiers in Pharmacology, 2024):

What was measured:
[1] = target: T1, 15-lipoxygenase from Glycine max (Glycine max, UniProt P08170); assay: Soybean 15-LOX inhibition assay (ferrous oxidation-xylenol orange); assay type: biochemical; conditions: linoleic acid 140 µM, pH 7.4, 25°C
T1 construct: purchased Sigma (Germany)
T1 sequence (P08170 1-839): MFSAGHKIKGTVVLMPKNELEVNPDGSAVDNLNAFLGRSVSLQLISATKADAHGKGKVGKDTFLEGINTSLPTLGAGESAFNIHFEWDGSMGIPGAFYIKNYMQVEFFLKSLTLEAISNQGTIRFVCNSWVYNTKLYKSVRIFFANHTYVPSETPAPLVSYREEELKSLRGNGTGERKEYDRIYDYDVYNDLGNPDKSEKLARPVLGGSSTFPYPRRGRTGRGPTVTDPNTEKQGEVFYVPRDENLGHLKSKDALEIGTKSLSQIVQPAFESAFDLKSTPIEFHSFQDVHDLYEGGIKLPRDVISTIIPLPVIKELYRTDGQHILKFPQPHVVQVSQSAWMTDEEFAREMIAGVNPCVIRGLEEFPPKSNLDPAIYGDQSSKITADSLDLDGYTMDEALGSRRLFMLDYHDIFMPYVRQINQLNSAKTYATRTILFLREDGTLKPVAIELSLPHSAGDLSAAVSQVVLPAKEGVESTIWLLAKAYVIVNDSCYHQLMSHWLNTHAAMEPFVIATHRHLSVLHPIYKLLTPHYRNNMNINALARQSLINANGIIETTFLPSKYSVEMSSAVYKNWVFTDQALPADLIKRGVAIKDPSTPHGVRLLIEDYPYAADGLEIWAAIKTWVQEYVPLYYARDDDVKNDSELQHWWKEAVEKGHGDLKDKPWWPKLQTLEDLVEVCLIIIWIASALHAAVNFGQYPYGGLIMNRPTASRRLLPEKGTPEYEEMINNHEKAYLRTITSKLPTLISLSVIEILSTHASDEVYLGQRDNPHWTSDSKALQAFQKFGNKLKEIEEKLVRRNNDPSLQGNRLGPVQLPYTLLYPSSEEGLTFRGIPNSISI
Experimental: The assay was performed according to a previously described procedure ([Pinto et al., 2007]) with slight modifications. The assay is based on measuring the formation of the complex Fe3^+/xylenol orange in a spectrophotometer at 560 nm. 15-LOX from G. max was incubated with compounds or standard inhibitors at 25°C for 5 min. The concentration range of the samples were from 250 μM to 1.95 µM. Then linoleic acid (final concentration, 140 µM) in Tris-HCl buffer (50 mM, pH 7.4) was added and the mixture was incubated at 25°C for 20 min in the dark. The assay was terminated by the addition of 100 µL of FOX reagent consisting of sulfuric acid (30 mM), xylenol orange (100 µM), iron (II) sulfate (100 µM) in methanol/water (9:1). For the control, only LOX solution and buffer were pipetted into the wells. Blanks (background) contained the enzyme LOX during incubation, but the substrate (linoleic acid) was added after the FOX reagent. […] The LOX inhibitory activity was evaluated by calculating the percentage of the inhibition of hydroperoxide production from the changes in absorbance values at 560 nm after 30 min at 25°C. % inhibition = [(Acontrol – Ablank) – (Asample – Ablank)/(Acontrol – Ablank)] x100. Where Acontrol is the absorbance of control well, Ablank is the absorbance of blank well and Asample is the absorbance of sample well.

[2] = test system: IL-2; assay: Th1/Th2 cytokine measurement (Cytometric Bead Array) in LPS-stimulated Raw 264.7 cells, IL-2; assay type: cell-based, Murine; conditions: compound at 20 µM, vs stimulated and untreated control
Experimental: (§1) Raw 264.7 cells were seeded at 2 × 10^5 cells/mL in a 48-well microplate and allowed to adhere for 24 h, then treated with LPS 0.1 μg/mL and with compounds (1), (5) and (6) at 20 µM. Untreated cells and indomethacin (10 µM) were used as controls. After 24 h of incubation, the supernatant was collected and the amount of pro-inflammatory Th1 cytokines (IFN-γ, TNF-α, and IL-2) and anti-inflammatory Th2 cytokines (IL-4, IL-6, and IL-10) released measured. The experiment was performed according to the manufacturer’s instructions using BD™ Cytometric Bead Array (CBA) […] Th1/Th2 Cytokine Kit (BD-Biosciences), and data were acquired on a BD LSR Fortessa™ cell analyzer flow cytometer.

[3] = test system: IL-10; assay: Th1/Th2 cytokine measurement (Cytometric Bead Array) in LPS-stimulated Raw 264.7 cells, IL-10; assay type: cell-based, Murine; conditions: compound at 20 µM, LPS 0.1 μg/mL, 24 h; stimulated untreated control 0.88 pg/mL
Experimental: as §1

IC50 [1]	melting point	Compound	effect on IL-2 production (in words) [2]	IL-10 level [3]
53 µM	82 °C	CC(C)=CCC/C(C)=C/C[C@]12C[C@@H](CC=C(C)C)C(C)(C)[C@](CC=C(C)C)(C(=O)C(C(=O)c3ccc(O)c(O)c3)=C1O)C2=O [Compound 6, Guttiferone M]	limited effect	1.77 pg/mL
63.9 µM		CC(C)=CCc1c2c(c3oc4c(O)cccc4c(=O)c3c1O)C=CC(C)(C)O2 [Compound 1, Ananixanthone]		0.971 pg/mL
45 µM	103 °C	CC(C)=CCC/C(C)=C/C[C@]12C[C@@H](CC=C(C)C)C(C)(C)[C@](C/C=C(\C)CCC=C(C)C)(C(=O)C(C(=O)c3ccc(O)c(O)c3)=C1O)C2=O [Compound 5, Guttiferone O]	significantly reduces	2.05 pg/mL
